Measured values as given in patent US9115148B2, “Spirocyclic derivatives as histone deacetylase inhibitors” (DAC S.R.L., priority 2008, dated 2015).

Columns and labels:
[1] = system: HDAC (nuclear fraction of Hela cells); assay: Assay of enzyme inhibition of HDAC (BIOMOL Kit); type: biochemical; conditions: substrate 200 μM, 15 min at RT
Outline: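 Enzyme source was HeLa nuclear fraction, incubated 15 min at RT with compound and an acetyl-lysine substrate at 200 μM. IC50 values were derived from concentration-response data.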

[2] = system: K562 cells; assay: Cell growth, CellTiter-Glo Luminescent Cell Viability Assay, K562; type: cell-based; conditions: Homo sapiens, 72 h incubation, read-out: IC50 antiproliferative assay K562
Outline: (§1)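 Exponentially growing cells exposed 72 h to a range of inhibitor concentrations. Viability measured as cellular ATP by CellTiter-Glo luminescence (2 min lysis, read after 10 min RT); IC50 calculated and binned into ranges (≤1.0, 1.0–3.0, ≥3.0 μM).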

[3] = system: A549 cells; assay: Cell growth, CellTiter-Glo Luminescent Cell Viability Assay, A549; type: cell-based; conditions: Homo sapiens, 72 h incubation, read-out: IC50 antiproliferative assay A549
Outline: as §1

[4] = system: HCT-116 cells; assay: Cell growth, CellTiter-Glo Luminescent Cell Viability Assay, HCT-116; type: cell-based; conditions: Homo sapiens, HCT116 cells, 72 h incubation, read-out: IC50 antiproliferative assay HCT116
Outline: as §1

IC50 [1] [nM]	IC50 [2] [nM]	IC50 [3] [nM]	IC50 [4] [nM]	Compound
100 to 1000	1000 to 3000	1000 to 3000	≤ 1000	CN1C(=O)c2cc(/C=C/C(=O)NO)ccc2OC12CCN(Cc1ccccc1)CC2 [Example 76, (E)-3-{1′-Benzyl-3,4-dihydro-3-methyl-4-oxo-spiro[2H-(1,3)-benzoxazine-2,4′-piperidin]-6-yl}-N-hydroxy-acrylamide]
< 100	≤ 1000	1000 to 3000	≤ 1000	O=C(/C=C/c1ccc2c(c1)C(=O)CC1(CCN(Cc3c[nH]c4cc(F)ccc34)CC1)O2)NO [Example 53, (E)-3-{1′-(6-Fluoro-1H-indol-3-ylmethyl)-4-oxo-spiro[chromane-2,4′-piperidine]-6-yl}-N-hydroxy-acrylamide]
> 1000	≥ 3000	≥ 3000	≥ 3000	CC(=O)N1CCC2(CC1)Oc1ccc(/C=C/C(=O)NO)cc1C2=O [Example 22, (E)-3-{1′-Acetyl-3-oxo-spiro[benzofuran-2(3H), 4′-piperidin]-5-yl}-N-hydroxy-acrylamide]
100 to 1000	1000 to 3000	1000 to 3000	≤ 1000	CON=C1CC2(CCN(Cc3ccccc3)CC2)Oc2ccc(/C=C/C(=O)NO)cc21 (racemic) [Example 18, (E)-3-{1′-Benzyl-4-methyloxyimino-spiro[chromane-2,4′-piperidine]-6-yl}-N-hydroxy-acrylamide]
100 to 1000	1000 to 3000	1000 to 3000	≥ 3000	CCOC(=O)N1CCC2(CC1)CC(=O)c1ccc(/C=C/C(=O)NO)cc1O2 [Example 12, (E)-3-{1′-Ethyloxycarbonyl-4-oxo-spiro[chromane-2,4′-piperidine]-7-yl}-N-hydroxy-acrylamide]
< 100	1000 to 3000	1000 to 3000	≤ 1000	CN1CCC2(CC1)NC(=O)c1cc(/C=C/C(=O)NO)ccc1O2 [Example 73, (E)-3-{1′-Methyl-3,4-dihydro-4-oxo-spiro[2H-(1,3)-benzoxazine-2,4′-piperidin]-6-yl}-N-hydroxy-acrylamide]
100 to 1000	≥ 3000	≥ 3000	≥ 3000	O=C(/C=C/c1ccc2c(c1)C(=O)CC1(CCN(C(=O)NCc3ccccc3)CC1)O2)NO [Example 47, (E)-3-{1′-Benzylcarbamoyl-4-oxo-spiro[chromane-2,4′-piperidine]-6-yl}-N-hydroxy-acrylamide]
< 100	≤ 1000	1000 to 3000	≤ 1000	O=C(/C=C/c1ccc2c(c1)C(=O)NC1(CCN(CCc3ccccc3)CC1)O2)NO [Example 71, (E)-3-{1′-(2-Phenyl-ethyl)-3,4-dihydro-4-oxo-spiro[2H-(1,3)-benzoxazine-2,4′-piperidin]-6-yl}-N-hydroxy-acrylamide]
100 to 1000	≥ 3000	≥ 3000	≥ 3000	CCNC(=O)N1CCC2(CC1)CC(=O)c1cc(/C=C/C(=O)NO)ccc1O2 [Example 46, (E)-3-{1′-Ethylcarbamoyl-4-oxo-spiro[chromane-2,4′-piperidine]-6-yl}-N-hydroxy-acrylamide]
< 100	≤ 1000	≤ 1000	≤ 1000	O=C(/C=C/c1ccc2c(c1)C(=O)CC1(CCN(Cc3c[nH]c4ccc(F)cc34)CC1)O2)NO [Example 54, (E)-3-{1′-(5-Fluoro-1H-indol-3-ylmethyl)-4-oxo-spiro[chromane-2,4′-piperidine]-6-yl}-N-hydroxy-acrylamide]
100 to 1000	≥ 3000	≥ 3000	≥ 3000	CC(=O)N1CCC2(CC1)CC(=O)c1cc(/C=C/C(=O)NO)ccc1O2 [Example 3, (E)-3-{1′-Acetyl-4-oxo-spiro[chromane-2,4′-piperidine]-6-yl}-N-hydroxy-acrylamide]
100 to 1000	≤ 1000	1000 to 3000	≤ 1000	COc1cccc(CN2CCC3(CC2)CC(=O)c2cc(/C=C/C(=O)NO)ccc2O3)c1 [Example 32, (E)-3-{1′-(3-Methoxy-benzyl)-4-oxo-spiro[chromane-2,4′-piperidine]-6-yl}-N-hydroxy-acrylamide]
